Assay results as given in ChEMBL document CHEMBL5131458, “Design, synthesis and human carbonic anhydrase I, II, IX and XII inhibitory properties of 1,3-thiazole sulfonamides” (Bioorg Med Chem Lett, 2022).

These molecules were tested against Carbonic anhydrase 9 (Homo sapiens, UniProt Q16790) (assay: Inhibition of recombinant human carbonic anhydrase 9 incubated for 15 mins by phenol red based stopped-flow CO2 hydration assay).

| SMILES | Ki |
| --- | --- |
| CCCCCCOC(=O)c1csc(Nc2ccc(S(N)(=O)=O)cc2)n1 | 70.6 nM |
| CCCCCCCOC(=O)c1csc(Nc2ccc(S(N)(=O)=O)cc2)n1 | 74.3 nM |
| NS(=O)(=O)c1ccc(Nc2nc(C(=O)OCCCCc3ccccc3)cs2)cc1 | 86.8 nM |
| NS(=O)(=O)c1ccc(Nc2nc(C(=O)OCCOc3ccccc3)cs2)cc1 | 150 nM |
| NS(=O)(=O)c1ccc(Nc2nc(C(=O)OCCO)cs2)cc1 | 43.2 nM |
| CC(O)COC(=O)c1csc(Nc2ccc(S(N)(=O)=O)cc2)n1 (stereo not given) | 37.9 nM |
| CCCCCCCCOC(=O)c1csc(Nc2ccc(S(N)(=O)=O)cc2)n1 | 78.9 nM |
| CCCOC(=O)c1csc(Nc2ccc(S(N)(=O)=O)cc2)n1 | 49.9 nM |
| CC(C)OC(=O)c1csc(Nc2ccc(S(N)(=O)=O)cc2)n1 | 90.3 nM |
| NS(=O)(=O)c1ccc(Nc2nc(C(=O)OCCOCCO)cs2)cc1 | 26.8 nM |

The remaining lines, values ahead:

| Ki | SMILES |
| --- | --- |
| 37.9 nM | CC(CO)OC(=O)c1csc(Nc2ccc(S(N)(=O)=O)cc2)n1 (stereo not given) |
| 71.1 nM | CCCCOC(=O)c1csc(Nc2ccc(S(N)(=O)=O)cc2)n1 |
| 72 nM | CCCCCOC(=O)c1csc(Nc2ccc(S(N)(=O)=O)cc2)n1 |
| 51.2 nM | CCOCCOC(=O)c1csc(Nc2ccc(S(N)(=O)=O)cc2)n1 |
| 35.1 nM | COCCOC(=O)c1csc(Nc2ccc(S(N)(=O)=O)cc2)n1 |
